From patent US8912220B2 (priority 2009, dated 2014)

What follows are molecules tested against human 5-HT2C(VSV) (Homo sapiens, UniProt P28335, I156V/I160V/N158S) (assay: cell-based).
Sequence of human 5-HT2C(VSV) (P28335 33-458 I156V/N158S/I160V limits assumed): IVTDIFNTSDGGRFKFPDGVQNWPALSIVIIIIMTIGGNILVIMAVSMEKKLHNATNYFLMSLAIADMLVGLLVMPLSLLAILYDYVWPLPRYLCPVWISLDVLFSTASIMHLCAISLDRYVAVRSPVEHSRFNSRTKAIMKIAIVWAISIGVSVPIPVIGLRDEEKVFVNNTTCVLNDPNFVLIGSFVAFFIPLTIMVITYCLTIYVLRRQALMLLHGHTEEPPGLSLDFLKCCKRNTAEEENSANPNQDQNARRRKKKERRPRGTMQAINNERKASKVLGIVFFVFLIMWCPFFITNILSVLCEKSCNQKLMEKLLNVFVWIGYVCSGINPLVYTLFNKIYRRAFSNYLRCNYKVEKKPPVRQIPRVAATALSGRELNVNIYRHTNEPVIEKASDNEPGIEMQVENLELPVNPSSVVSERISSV

Compound | EC50 [nM]
CCn1cc(CCNCCc2ccccc2)c2c(O)cc(F)cc21 [26-11, 1-ethyl-6-fluoro-3-(2-(phenethylamino)ethyl)-1H-indol-4-ol] | 1 to 500
CNCCc1cn(C)c2cc(F)cc(OCc3ccccc3Cl)c12 [33-44, 2-(4-(2-chlorobenzyloxy)-6-fluoro-1-methyl-1H-indol-3-yl)-N-methylethanamine] | 1 to 500
CCCn1cc(CCN)c2c(OCc3ccc(Cl)cc3)c(F)ccc21 [18-3, 2-(4-(4-chlorobenzyloxy)-5-fluoro-1-propyl-1H-indol-3-yl)ethanamine] | < 10000
CCn1cc(CCN(C)C)c2c(OC)cc(-c3ccccc3)cc21 [36-6, 2-(1-ethyl-4-methoxy-6-phenyl-1H-indol-3-yl)-N,N-dimethylethanamine] | 500 to 10000
CN(CCc1cn(C)c2ccc(F)c(OCc3ccccc3C#N)c12)Cc1ccccc1C#N [35-2, 2-((3-(2-((2-cyanobenzyl)(methyl)amino)ethyl)-5-fluoro-1-methyl-1H-indol-4-yloxy)methyl)benzonitrile] | 500 to 10000
COc1c(F)ccc2c1c(CCN1CCc3ccc(Cl)cc3C(C)C1)cn2C (stereo not drawn) [17-8, 8-chloro-3-(2-(5-fluoro-4-methoxy-1-methyl-1H-indol-3-yl)ethyl)-1-methyl-2,3,4,5-tetrahydro-1H-benzo[d]azepine] | 1 to 500
CN(C)CCc1cn(Cc2cccs2)c2c(F)ccc(OCc3ccccc3)c12 [7-4, 2-(4-(benzyloxy)-7-fluoro-1-(thiophen-2-ylmethyl)-1H-indol-3-yl)-N,N-dimethylethanamine] | 1 to 500
CNCCc1cn(C)c2ccc(F)c(OCc3ccc(C)cc3)c12 [33-27, 2-(5-fluoro-1-methyl-4-(4-methylbenzyloxy)-1H-indol-3-yl)-N-methylethanamine] | 1 to 500
CCn1cc(CCN(C)C)c2c(OCc3ccccc3C(F)(F)F)cc(F)cc21 [1-13b, 2-(1-ethyl-6-fluoro-4-(2-(trifluoromethyl)benzyloxy)-1H-indol-3-yl)-N,N-dimethylethanamine] | 500 to 10000
CCn1cc(CCNCCc2cccc(C(F)(F)F)c2)c2c(OCc3ccccc3)cc(F)cc21 [31-13, 2-(4-(benzyloxy)-1-ethyl-6-fluoro-1H-indol-3-yl)-N-(3-(trifluoromethyl)phenethyl)ethanamine] | 1 to 500
CCn1cc(CCN(C)C)c2c(OCc3ccc(OC(F)(F)F)cc3)cc(F)cc21 [1-11b, 2-(1-ethyl-6-fluoro-4-(4-(trifluoromethoxy)benzyloxy)-1H-indol-3-yl)-N,N-dimethylethanamine] | 500 to 10000
COc1ccc(-c2ccco2)c2c1c(CCN(C)C)cn2C [6-8, 2-(7-(furan-2-yl)-4-methoxy-1-methyl-1H-indol-3-yl)-N,N-dimethylethanamine] | 500 to 10000
CNCCc1cn(C)c2c(F)cc(CCC3CCCCC3)c(OC)c12 [23-5, 2-(5-(2-cyclohexylethyl)-7-fluoro-4-methoxy-1-methyl-1H-indol-3-yl)-N-methylethanamine] | 1 to 500
CCCn1cc(CCNC)c2c(OCc3ccc(C)cc3)c(F)ccc21 [33-16, 2-(5-fluoro-4-(4-methylbenzyloxy)-1-propyl-1H-indol-3-yl)-N-methylethanamine] | 1 to 500
CCn1cc(CCN2CCNCC2)c2c(O)cc(F)cc21 [11-15, 1-ethyl-6-fluoro-3-(2-(piperazin-1-yl)ethyl)-1H-indol-4-ol] | 500 to 10000
CCn1cc(CCNCc2ccccc2)c2c(OCc3ccccc3)cc(F)cc21 [26-7, N-benzyl-2-(4-(benzyloxy)-1-ethyl-6-fluoro-1H-indol-3-yl)ethanamine] | 500 to 10000
CCn1cc(CCN(C)C)c2c(Oc3ccccc3[N+](=O)[O-])ccc(F)c21 [2-2, 2-(1-ethyl-7-fluoro-4-(2-nitrophenoxy)-1H-indol-3-yl)-N,N-dimethylethanamine] | 500 to 10000

Compound | EC50 [nM]
CNCCc1cn(C)c2ccc(F)c(OCc3ccccc3Cl)c12 [33-23, 2-(4-(2-chlorobenzyloxy)-5-fluoro-1-methyl-1H-indol-3-yl)-N-methylethanamine] | 1 to 500
CCn1cc(CCN(C)C)c2c(OC)c(CCc3nc4ccccc4[nH]3)cc(F)c21 [29-4, 2-(5-(2-(1H-benzo[d]imidazol-2-yl)ethyl)-1-ethyl-7-fluoro-4-methoxy-1H-indol-3-yl)-N,N-dimethylethanamine] | 1 to 500
CCOc1c(F)ccc2c1c(CCNCCc1ccc3c(c1)OCO3)cn2C [30-26, 2-(benzo[d][1,3]dioxol-5-yl)-N-(2-(4-ethoxy-5-fluoro-1-methyl-1H-indol-3-yl)ethyl)ethanamine] | 1 to 500
CCOc1c(F)ccc2c1c(CCNCCc1ccccn1)cn2C [30-27, 2-(4-ethoxy-5-fluoro-1-methyl-1H-indol-3-yl)-N-(2-(pyridin-2-yl)ethyl)ethanamine] | 1 to 500
Cn1cc(CCNCc2ccccc2)c2c(O)c(F)ccc21 [33-47, 3-(2-(benzylamino)ethyl)-5-fluoro-1-methyl-1H-indol-4-ol] | 1 to 500
CCn1cc(CCNCc2ccccc2)c2c(OC)ccc(F)c21 [20-4, N-benzyl-2-(1-ethyl-7-fluoro-4-methoxy-1H-indol-3-yl)ethanamine] | 1 to 500
CNCCc1cn(C)c2ccc(F)c(OCc3ccccc3OC(F)(F)F)c12 [33-34, 2-(5-fluoro-1-methyl-4-(2-(trifluoromethoxy)benzyloxy)-1H-indol-3-yl)-N-methylethanamine] | 1 to 500
COc1ccc(F)c2c1c(CCN1CCOCC1)cn2C [11-9, 4-(2-(7-fluoro-4-methoxy-1-methyl-1H-indol-3-yl)ethyl)morpholine] | 1 to 500
CNCCc1cn(C)c2ccc(F)c(OCc3ccccc3C)c12 [33-22, 2-(5-fluoro-1-methyl-4-(2-methylbenzyloxy)-1H-indol-3-yl)-N-methylethanamine] | 1 to 500
CNCCc1cn(C)c2ccc(F)c(OCc3ccc(Cl)c(OC(F)(F)F)c3)c12 [33-49, 2-(4-(4-chloro-3-(trifluoromethoxy)benzyloxy)-5-fluoro-1-methyl-1H-indol-3-yl)-N-methylethanamine] | < 10000
CN(C)CCc1cn(Cc2ccccc2)c2c(F)ccc(OCc3ccccc3)c12 [7-2, 2-(1-benzyl-4-(benzyloxy)-7-fluoro-1H-indol-3-yl)-N,N-dimethylethanamine] | 500 to 10000
CCn1cc(CCN(C)C)c2c(OCc3ccsc3)cc(F)cc21 [1-19b, 2-(1-ethyl-6-fluoro-4-(thiophen-3-ylmethoxy)-1H-indol-3-yl)-N,N-dimethylethanamine] | 1 to 500
CNCCc1cn(C)c2ccc(F)c(OCc3cccc4ccccc34)c12 [33-36, 2-(5-fluoro-1-methyl-4-(naphthalen-1-ylmethoxy)-1H-indol-3-yl)-N-methylethanamine] | 1 to 500
CCOc1c(F)ccc2c1c(CCN1CCOCC1)cn2C [30-23, 4-(2-(4-ethoxy-5-fluoro-1-methyl-1H-indol-3-yl)ethyl)morpholine] | 500 to 10000
CN(C)CCc1cn(Cc2ccco2)c2c(F)ccc(OCc3ccccc3)c12 [24-1, 2-(4-(benzyloxy)-7-fluoro-1-(furan-2-ylmethyl)-1H-indol-3-yl)-N,N-dimethylethanamine] | 1 to 500
CCOc1c(F)ccc2c1c(CCNCc1ccc3c(c1)OCO3)cn2C [30-18, N-(benzo[d][1,3]dioxol-5-ylmethyl)-2-(4-ethoxy-5-fluoro-1-methyl-1H-indol-3-yl)ethanamine] | 1 to 500
